According to US9321790B2, “Pyrimidinone derivatives as antimalarial agents” (SANOFI, priority 2012, dated 2016):

Assays:
[1] = system: Plasmodium falciparum (strain NF54); assay: Antimalarial activity test: growth of Plasmodium falciparum in infected human erythrocytes, 3H-hypoxanthine incorporation; assay type: cell-based; conditions: strain NF54 sensitive to chloroquine, 72 h total incubation
How it was run: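 Chloroquine-sensitive NF54 parasites in human erythrocytes (1.25% hematocrit, 0.15% parasitemia) were grown in hypoxanthine-free RPMI 1640 with HEPES and Albumax II, with compound in twofold serial dilution, at 37 °C under 93% N2/4% CO2/3% O2. After 48 h, 3H-hypoxanthine (0.5 μCi) was added for 24 h. Scintillation counts versus drug-free control gave IC50.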

[2] = biological target: human PI3Kα (Homo sapiens (Human), UniProt P42336); assay: Human PI3Kα activity test (luciferin/luciferase ATP consumption, KinaseGlo); assay type: biochemical; conditions: PI3Kα (p110α/p85α), 50 μM PIP2, 2 μM ATP, 90 minutes; read-out: IC50 Human PI3Kα
Chain of human PI3Kα (P42336 whole entry): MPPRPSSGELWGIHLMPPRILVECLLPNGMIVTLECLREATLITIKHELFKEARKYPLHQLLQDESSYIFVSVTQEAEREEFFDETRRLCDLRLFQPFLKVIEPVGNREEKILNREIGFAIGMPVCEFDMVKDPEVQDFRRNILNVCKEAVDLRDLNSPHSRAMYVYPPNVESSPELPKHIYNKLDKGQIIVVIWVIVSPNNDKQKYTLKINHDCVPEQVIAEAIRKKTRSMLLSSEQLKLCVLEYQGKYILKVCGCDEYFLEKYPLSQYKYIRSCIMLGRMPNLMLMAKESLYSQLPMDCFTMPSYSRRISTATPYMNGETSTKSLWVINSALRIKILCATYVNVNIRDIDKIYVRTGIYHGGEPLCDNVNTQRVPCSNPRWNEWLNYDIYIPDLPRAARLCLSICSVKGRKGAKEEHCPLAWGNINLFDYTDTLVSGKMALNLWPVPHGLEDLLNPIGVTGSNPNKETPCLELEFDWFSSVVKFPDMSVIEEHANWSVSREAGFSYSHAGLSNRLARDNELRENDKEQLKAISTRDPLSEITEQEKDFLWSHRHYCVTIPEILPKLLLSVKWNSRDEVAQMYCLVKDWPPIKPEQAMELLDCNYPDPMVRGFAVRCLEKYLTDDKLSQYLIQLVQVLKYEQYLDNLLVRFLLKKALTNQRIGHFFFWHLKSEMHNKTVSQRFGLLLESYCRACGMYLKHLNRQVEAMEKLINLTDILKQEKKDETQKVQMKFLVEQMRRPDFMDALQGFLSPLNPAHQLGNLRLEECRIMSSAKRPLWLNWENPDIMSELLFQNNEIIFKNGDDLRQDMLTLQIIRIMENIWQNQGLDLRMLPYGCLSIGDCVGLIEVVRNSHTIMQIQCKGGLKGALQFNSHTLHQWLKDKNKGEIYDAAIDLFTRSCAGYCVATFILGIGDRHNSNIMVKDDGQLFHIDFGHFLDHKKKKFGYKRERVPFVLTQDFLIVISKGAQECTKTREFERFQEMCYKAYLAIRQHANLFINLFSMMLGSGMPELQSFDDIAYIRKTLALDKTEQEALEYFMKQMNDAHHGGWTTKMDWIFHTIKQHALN
Chain of human PI3Kα (P27986 whole entry partner): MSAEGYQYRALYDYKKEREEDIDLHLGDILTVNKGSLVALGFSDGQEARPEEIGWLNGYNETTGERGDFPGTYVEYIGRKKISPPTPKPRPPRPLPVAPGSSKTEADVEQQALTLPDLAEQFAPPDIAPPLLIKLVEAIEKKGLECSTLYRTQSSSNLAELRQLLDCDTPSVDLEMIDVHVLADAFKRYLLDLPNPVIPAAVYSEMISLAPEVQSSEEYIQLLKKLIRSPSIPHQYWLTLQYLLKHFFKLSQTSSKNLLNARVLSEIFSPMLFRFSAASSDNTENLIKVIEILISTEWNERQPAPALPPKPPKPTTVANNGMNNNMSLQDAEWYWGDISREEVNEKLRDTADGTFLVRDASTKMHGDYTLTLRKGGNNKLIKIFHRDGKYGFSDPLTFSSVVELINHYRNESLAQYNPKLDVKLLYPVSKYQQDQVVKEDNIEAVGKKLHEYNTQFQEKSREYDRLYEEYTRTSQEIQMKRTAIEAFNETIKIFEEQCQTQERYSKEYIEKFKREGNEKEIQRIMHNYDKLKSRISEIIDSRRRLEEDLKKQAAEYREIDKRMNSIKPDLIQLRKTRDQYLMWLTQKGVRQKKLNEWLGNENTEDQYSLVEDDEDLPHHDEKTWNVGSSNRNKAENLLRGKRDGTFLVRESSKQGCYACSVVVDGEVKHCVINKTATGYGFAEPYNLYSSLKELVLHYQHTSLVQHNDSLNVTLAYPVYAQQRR
Experimental: The test uses a luciferin/luciferase system to measure the concentration of ATP and its consumption during the enzymatic reaction.
After 90 minutes, the reaction is quenched by adding 20 μl/well of KinaseGlo reagent (Promega V6713). After 10 minutes in the dark, the luminescence is read using a PHERAStar microplate reader (reading at 0.8 sec/well).

[3] = Plasmodium falciparum, Erythrocyte

SMILES	IC50 [1, 3] [µM]	IC50 [2] [µM]	IC50 [1] [µM]
CN(C)C(=O)COc1ccc(CCN2c3nc(N4CC5CCC(C4)O5)cc(=O)n3C[C@@]2(C)C(F)(F)F)cc1 [Compound 70, N, N-dimethyl-2-(4-{2-[(S)-2-methyl-7-(8-oxa-3-azabicyclo[3.2.1]oct-3-yl)-5-oxo-2-trifluoromethyl-2,3-dihydro-5H-imidazo[1,2-a]pyrimidin-1-yl]ethyl}phenoxy)acetamide]	0.012	1	–
O=C(CN1c2nc(N3C[C@@H]4C[C@H]3CO4)cc(=O)n2CC[C@H]1C(F)(F)F)N1CC2CCC(C1)O2 [Compound 98, (8S)-2-(1S,4S)-2-Oxa-5-azabicyclo[2.2.1]hept-5-yl-9-[2-(8-oxa-3-azabicyclo[3.2.1]oct-3-yl)-2-oxoethyl]-8-trifluoromethyl-6,7,8,9-tetrahydropyrimido[1,2-a]pyrimidin-4-one]	–	> 10	0.14
CN(C)c1ccc(C(=O)CN2c3nc(N4C[C@@H]5C[C@H]4CO5)cc(=O)n3CC[C@H]2C(F)(F)F)cn1 [Compound 6, (8S)-9-[2-(6-dimethylaminopyrid-3-yl)-2-oxoethyl]-2-(1S,4S)-2-oxa-5-azabicyclo[2.2.1]hept-5-yl-8-trifluoromethyl-6,7,8,9-tetrahydropyrimido[1,2-a]pyrimidin-4-one]	> 0.2	> 10	–
CN(CCO)c1ccc(C(=O)CN2c3nc(N4C[C@@H]5C[C@H]4CO5)cc(=O)n3CC[C@H]2C(F)(F)F)cn1 [Compound 34, (8S)-9-(2-{6-[(2-Hydroxyethyl)methylamino]pyrid-3-yl}-2-oxoethyl)-2-(1S,4S)-2-oxa-5-azabicyclo[2.2.1]hept-5-yl-8-trifluoromethyl-6,7,8,9-tetrahydropyrimido[1,2-a]pyrimidin-4-one]	> 0.2	> 10	–
O=C(CN1c2nc(N3C[C@@H]4C[C@H]3CO4)cc(=O)n2CC[C@H]1C(F)(F)F)c1cnc2c(c1)OCCN2 [Compound 38, (8S)-9-[2-(3,4-dihydro-2H-pyrido[3,2-b][1,4]oxazin-7-yl)-2-oxoethyl]-2-(1S,4S)-2-oxa-5-azabicyclo[2.2.1]hept-5-yl-8-trifluoromethyl-6,7,8,9-tetrahydropyrimido[1,2-a]pyrimidin-4-one]	0.14	5.77	–
O=C(CN1c2nc(N3C[C@@H]4C[C@H]3CO4)cc(=O)n2CC[C@H]1C(F)(F)F)c1ccc(N2CCOCC2)cc1 [Compound 41, (8S)-9-[2-(4-Morpholin-4-ylphenyl)-2-oxoethyl]-2-(1S,4S)-2-oxa-5-azabicyclo[2.2.1]hept-5-yl-8-trifluoromethyl-6,7,8,9-tetrahydropyrimido[1,2-a]pyrimidin-4-one]	0.93	4.2	–
O=c1cc(N2C[C@@H]3C[C@H]2CO3)nc2n1CC[C@@H](C(F)(F)F)N2CCC(O)(C(F)(F)F)C(F)(F)F [Compound 97, (8S)-2-(1S,4S)-2-Oxa-5-azabicyclo[2.2.1]hept-5-yl-9-(4,4,4-trifluoro-3-hydroxy-3-trifluoromethylbutyl)-8-trifluoromethyl-6,7,8,9-tetrahydropyrimido[1,2-a]pyrimidin-4-one]	–	0.44	0.03
CC(C)C(=O)CN1c2nc(N3C[C@@H]4C[C@H]3CO4)cc(=O)n2CC[C@H]1C(F)(F)F [Compound 56, (8S)-9-(3-methyl-2-oxobutyl)-2-(1S,4S)-2-oxa-5-azabicyclo[2.2.1]hept-5-yl-8-trifluoromethyl-6,7,8,9-tetrahydropyrimido[1,2-a]pyrimidin-4-one]	0.045	> 10	–
Cc1ncsc1C(=O)CN1c2nc(N3C[C@@H]4C[C@H]3CO4)cc(=O)n2CC[C@H]1C(F)(F)F [Compound 43, (8S)-9-[2-(4-methylthiazol-5-yl)-2-oxoethyl]-2-(1S,4S)-2-oxa-5-azabicyclo[2.2.1]hept-5-yl-8-trifluoromethyl-6,7,8,9-tetrahydropyrimido[1,2-a]pyrimidin-4-one]	0.042	> 10	–
N#Cc1ccc(C(=O)CN2c3nc(N4C[C@@H]5C[C@H]4CO5)cc(=O)n3CC[C@H]2C(F)(F)F)cc1 [Compound 42, 4-[2-((S)-8-(1S,4S)-2-Oxa-5-azabicyclo[2.2.1]hept-5-yl-6-oxo-2-trifluoromethyl-3,4-dihydro-2H,6H-pyrimido[1,2-a]pyrimidin-1-yl)acetyl]benzonitrile]	–	> 10	0.08
Cc1cncc(C(=O)CN2c3nc(N4C[C@@H]5C[C@H]4CO5)cc(=O)n3C[C@@]2(C)C(F)(F)F)c1 [Compound 16, 2-methyl-1-[2-(5-methylpyrid-3-yl)-2-oxoethyl]-7-(1S,4S)-2-oxa-5-azabicyclo[2.2.1]hept-5-yl-2-((S)-trifluoromethyl)-2,3-dihydro-1H-imidazo[1,2-a]pyrimidin-5-one]	> 0.2	> 7.2	–
Nc1ccc(C(=O)CN2c3nc(N4CC5CC4CO5)cc(=O)n3CC[C@H]2C(F)(F)F)cn1 (stereo partly drawn) [Compound 3, (8S)-9-[2-(6-Aminopyrid-3-yl)-2-oxoethyl]-2-oxa-5-azabicyclo[2.2.1]hept-5-yl-8-trifluoromethyl-6,7,8,9-tetrahydropyrimido[1,2-a]pyrimidin-4-one]	–	7.2	0.013
O=c1cc(N2CC3CCC(C2)O3)nc2n1CC[C@@H](C(F)(F)F)N2CCc1ccc(O)cc1 [Compound 83, (8S)-9-[2-(4-Hydroxyphenyl)ethyl]-2-(8-oxa-3-azabicyclo[3.2.1]oct-3-yl)-8-trifluoromethyl-6,7,8,9-tetrahydropyrimido[1,2-a]pyrimidin-4-one]	0.01	0.19	–
O=C(CN1c2nc(N3C[C@@H]4C[C@H]3CO4)cc(=O)n2CC[C@H]1C(F)(F)F)c1ccc2nccn2c1 [Compound 113, (8S)-9-(2-Imidazo[1,2-a]pyrid-6-yl-2-oxoethyl)-2-(1S,4S)-2-oxa-5-azabicyclo[2.2.1]hept-5-yl-8-trifluoromethyl-6,7,8,9-tetrahydropyrimido[1,2-a]pyrimidin-4-one]	0.43	> 10	–
Cc1nscc1C(=O)CN1c2nc(N3C[C@@H]4C[C@H]3CO4)cc(=O)n2CC[C@H]1C(F)(F)F [Compound 107, (8S)-9-[2-(3-Methylisothiazol-4-yl)-2-oxoethyl]-2-(1S,4S)-2-oxa-5-azabicyclo[2.2.1]hept-5-yl-8-trifluoromethyl-6,7,8,9-tetrahydropyrimido[1,2-a]pyrimidin-4-one]	0.1	> 10	–
COC(=O)Nc1ccc(C(=O)CN2c3nc(N4C[C@@H]5C[C@H]4CO5)cc(=O)n3CC[C@H]2C(F)(F)F)cn1 [Compound 58, {5-[2-((S)-8-(1S,4S)-2-Oxa-5-azabicyclo[2.2.1]hept-5-yl-6-oxo-2-trifluoromethyl-3,4-dihydro-2H,6H-pyrimido[1,2-a]pyrimidin-1-yl)acetyl]pyrid-2-yl}carbamic acid methyl ester]	–	6.4	0.053
O=C(CN1c2nc(N3CC4CCC(C3)O4)cc(=O)n2CC[C@H]1C(F)(F)F)c1ccccc1 [Compound 73, (8S)-2-(8-Oxa-3-azabicyclo[3.2.1]oct-3-yl)-9-(2-oxo-2-phenylethyl)-8-trifluoromethyl-6,7,8,9-tetrahydropyrimido[1,2-a]pyrimidin-4-one]	0.044	2.5	–
O=C(CN1c2nc(N3C[C@@H]4C[C@H]3CO4)cc(=O)n2CC[C@H]1C(F)(F)F)c1cncc(Cl)c1 [Compound 44, (8S)-9-[2-(5-Chloropyrid-3-yl)-2-oxoethyl]-2-(1S,4S)-2-oxa-5-azabicyclo[2.2.1]hept-5-yl-8-trifluoromethyl-6,7,8,9-tetrahydropyrimido[1,2-a]pyrimidin-4-one]	0.106	> 10	–
O=c1cc(N2C[C@@H]3C[C@H]2CO3)nc2n1CC[C@@H](C(F)(F)F)N2Cc1cccc2ncccc12 [Compound 106, (8S)-2-(1S,4S)-2-oxa-5-azabicyclo[2.2.1]hept-5-yl-9-quinolin-5-ylmethyl-8-trifluoromethyl-6,7,8,9-tetrahydropyrimido[1,2-a]pyrimidin-4-one]	0.013	> 10	–
O=c1cc(N2C[C@@H]3C[C@H]2CO3)nc2n1CC[C@@H](C(F)(F)F)N2CC(O)(C1CC1)C1CC1 [Compound 103, (8S)-9-(2,2-Dicyclopropyl-2-hydroxyethyl)-2-(1S,4S)-2-oxa-5-azabicyclo[2.2.1]hept-5-yl-8-trifluoromethyl-6,7,8,9-tetrahydropyrimido[1,2-a]pyrimidin-4-one]	0.075	0.84	–
O=c1cc(N2CC3CCC(C2)O3)nc2n1CC[C@@H](C(F)(F)F)N2Cc1ccn(C(F)F)n1 [Compound 86, (8S)-9-(1-Difluoromethyl-1H-pyrazol-3-ylmethyl)-2-(8-oxa-3-azabicyclo[3.2.1]oct-3-yl)-8-trifluoromethyl-6,7,8,9-tetrahydropyrimido[1,2-a]pyrimidin-4-one]	0.17	7.3	–
CON(C)C(=O)CN1c2nc(N3C[C@@H]4C[C@H]3CO4)cc(=O)n2CC[C@H]1C(F)(F)F [Compound 112, N-Methoxy-N-methyl-2-((S)-8-(1S,4S)-2-oxa-5-azabicyclo[2.2.1]hept-5-yl-6-oxo-2-trifluoromethyl-3,4-dihydro-2H,6H-pyrimido[1,2-a]pyrimidin-1-yl)acetamide]	–	> 10	0.2
O=c1cc(N2C[C@@H]3C[C@H]2CO3)nc2n1CC[C@@H](C(F)(F)F)N2CC(O)(C(F)(F)F)C(F)(F)F [Compound 96, (8S)-2-(1S,4S)-2-oxa-5-azabicyclo[2.2.1]hept-5-yl-9-(3,3,3-trifluoro-2-hydroxy-2-trifluoromethylpropyl)-8-trifluoromethyl-6,7,8,9-tetrahydropyrimido[1,2-a]pyrimidin-4-one]	0.17	8.5	–
